How the values were obtained:
Zluc cells = test: cytotoxicity evaluation (CellTiter-Blue Cell Viability Assay); conditions: read-out: HCV Replicon CC50; Zluc cells, CellTiter-Blue
HCV genotype 1b replicon = test: HCV Replicon Assay; assay type: cell-based; conditions: Zluc cells (Huh-7-derived, HCV genotype 1b replicon, luciferase reporter), 72 hours; read-out: HCV Replicon EC50
Experimental: Huh-7-derived cell line (Zluc) that harbors an HCV genotype 1b replicon and a luciferase reporter gene was grown in Dulbecco's Modified Eagle Medium (DMEM) supplemented with 10% fetal bovine serum, 2 mM GlutaMAX, 1% MEM nonessential amino acids, 100 IU/mL penicillin, 100 μg/mL streptomycin, and 0.5 mg/mL Geneticin® (G418). For dose response testing the cells were seeded in 96-well plates at 7.5×10^3 cells per well in a volume of 50 μL, and incubated at 37° C./5% CO2. Drug solutions were made up freshly in Huh-7 media as 2× stocks. Ten additional 5-fold dilutions were prepared from these stocks in DMEM without G418. At least three hours after Zluc cells were seeded, drug treatment was initiated by adding 50 μL of drug dilutions to the plates in duplicate. Final concentrations of drug ranged from 100 μM to […]. Cells were then incubated at 37° C./5% CO2. Alternatively, compounds were tested at two concentrations (1 μM and 10 μM). […] For this, media was removed from the plates via gentle tapping. Fifty microliters of ONE-glo luciferase assay reagent was added to each well. The plates were shaken gently for 3 min at room temperature and luminescence was measured on a Victor^3 V 1420 multilabel counter (Perkin Elmer) with a 1 second read time using a 700 nm cut-off filter. The EC50 values were calculated from dose response curves from the resulting best-fit equations determined by Microsoft Excel and XLfit 4.1 software. When screening at two fixed concentrations, the results were expressed as % inhibition at 1 μM and 10 μM.

[1] = Stability in fresh human whole blood; assay type: in vitro ADME; conditions: 0.5 μM, percent unchanged test compound
Experimental: (§1) Stability of compounds were determined in fresh human whole blood with K2EDTA as the anticoagulant (stored refrigerated at 2-8° C. and used within 7 days of receipt). The experiment was conducted with three replicates for each time point. Whole blood, pre-incubated at 37° C. for 10-15 minutes, was fortified with a solution of test compound for a final concentration of 0.5 μM and mixed for 30 sec. At intervals (0, 0.5, 1 and 2 hr), three 50 μL aliquots were combined with 200 μL (each) of an ice-cold solution of the internal standard (carbutamide 500 ng/mL in acetonitrile). The samples were vortexed for 30 sec and then centrifuged at 16,100 g for 5 min. The supernatant was analyzed by LC-MS/MS. The MS peak area ratio of the test compounds versus the internal standard was calculated and percent unchanged test compound was calculated for each time point using this ratio.

Stability in mouse blood = assay type: in vitro ADME; conditions: on ice, percent unchanged test compound
Experimental: as §1
The stability in mouse blood was determined on ice at 0, 0.5 and 1 hr as herein.

[2] = Stability in simulated intestinal fluid; assay type: in vitro ADME; conditions: 100 μM, 2 hours at 37° C., percent of the peak area at time zero
Experimental: Simulated gastric and intestinal fluids containing pepsin and pancreatin respectively were prepared according to the U.S. Pharmacopoeia USP291 procedure (www.pharmacopeia.cn/v29240/usp29nf24s0_ris1s126.html). Compounds (final concentration 100 μM) were incubated in duplicate in the appropriate fluid for 2 hours at 37° C. The samples were quenched with 200 μl cold acetonitrile, vortexed for 30 seconds and then centrifuged at 16,100 g for 10 min. The supernatants were analyzed by HPLC on a C-18 column with UV detection at 252 nm. The time 0 samples were prepared by adding SGF or SIF fluid to the quenching solvent followed by the test compound. Stability of the compounds was determined by peak area of the test compounds after incubation and calculated as percent of the peak area observed at time zero.

fresh human hepatocytes = test: Release of active metabolite in fresh human hepatocytes; assay type: in vitro ADME; conditions: 10 μM compound; for FHH TP Cmax: fresh human hepatocytes; for FHH TP AUC: fresh human hepatocytes, 6, 24 and 48 hours
Experimental: (§2) Plates of fresh human and mouse hepatocytes were obtained on ice. The medium was removed and replaced with hepatocyte culture medium (William's E supplemented with penicillin-streptomycin, 1% L-glutamine, 1% insulin-transferrin-selenium and 0.1 μM Dexamethasone (Invitrogen) or with Invitro GRO HI medium complemented with Torpedo antibiotics (Celsis)). Cells were left overnight in an incubator at 37° C. to acclimatize to culture and the medium.
(§3) Hepatocyte incubations were conducted at a final volume of 0.5 mL hepatocyte culture medium/well (0.8 million cells/well for human and 0.5 million cells/well for mouse; 12 well plate no overlay, collagen coat). Culture medium from overnight incubation of cells was removed and replaced with fresh medium, pre-warmed to 37° C., containing 10 μM of test compound from a stock solution in DMSO (final DMSO concentration was 0.1%). At each specific time point, incubation medium was removed and cell monolayers were carefully washed two times with ice-cold PBS. Following the last wash, all PBS was carefully removed and 1.0 mL of extraction solution (ice-cold 70% methanol/30% water) added. Cells were scraped off and suspended in the extraction solution, transferred to 2 mL polypropylene microfuge tubes and intracellular contents extracted overnight at −20° C.
(§4) After the overnight treatment the cellular extracts were prepared by centrifugation at 16,000×g for 10 min to remove cellular debris. The remaining sample was then dried using a refrigerated centrivap concentrator. Dry extracts were reconstituted in 1000 μL of HPLC-grade water and centrifuged at 16,000×g for 10 min. Aliquots (100 μL each) of the supernatant were transferred into a 96 well plate and internal standard (4 ng/mL final concentration) was added as the internal standard (IS) for LC-MS/MS analysis.
(§5) The incubation time points were 6, 24 and 48 hours for human hepatocytes and 1, 4, 8, 12 and 24 hours for mouse hepatocytes.

mouse hepatocytes = test: Release of active metabolite in mouse hepatocytes; assay type: in vitro ADME; conditions: 10 μM compound; for MsH AUC: mouse hepatocytes, 1, 4, 8, 12 and 24 hours
Experimental: as §2, §3, §4, §5

[3] = Liver pharmacokinetics following a single oral dose in CD-1 mice; assay type: in vivo; conditions: single oral dose 25 mg/kg in PEG 200, CD-1 male mice; given at 1 μmol/kg
Experimental: (§6) A single oral dose of test compound at 25 mg/kg in PEG 200 (dose volume 5 mL/kg) was administered to nine CD-1 male mice. Five untreated animals were used for the collection of control plasma and liver. Terminal plasma and liver samples were collected from three animals per time point at 4, 12 and 24 hours post dose. Liver specimens were collected from all animals immediately after the incision. Freezing forceps stored in liquid nitrogen were used to freeze the liver before excision.
Liver samples were analyzed for the active species 2′-methylguanosine triphosphate (2′-MeGTP) by LC-MS/MS. 2′-MeGTP levels were assayed by homogenizing (on ice) a known weight of mouse liver with 4× volume of 0.95 M trichloroacetic acid (TCA). Internal standard solution was added to the homogenate followed by neutralization with 20% ammonium hydroxide solution and addition of 500 μL 1% formic acid. The tissue samples were extracted by weak anion exchange solid phase extraction (SPE). Post extraction, the eluates were evaporated under nitrogen, followed by reconstitution before injection onto the LC-MS/MS system. The samples were chromatographed on a Luna NH2 column using a gradient system of ammonium acetate (1 mM to 20 mM and pH 8.0 to pH 10.0) in water and acetonitrile (70:30). The analyte was detected and quantified by tandem mass spectrometry in positive ion mode on an API4000 equipped with a Turbo Ionspray® interface. The calibration range was 10 to 10000 pmol/mL in mouse liver homogenate (50 to 50000 pmol/g of mouse liver).

[4] = Plasma pharmacokinetics following a single oral dose in CD-1 mice; assay type: in vivo; conditions: single oral dose 25 mg/kg in PEG 200, CD-1 male mice; given at 1 μmol/kg
Experimental: as §6
Plasma samples were analyzed for 2′-methylguanosine (2′-MeG) by LC-MS/MS. The internal standard (IS) was 2′-MeG-D3. For protein precipitation and extraction, each plasma sample (50 μL) was treated with 500 μL of 0.2% formic acid in acetonitrile and 20 μL of the internal standard working solution. After vortexing and centrifugation, 500 μL of the sample extracts were transferred to a new plate, dried under N2 at ˜28° C. and reconstituted with 75 μL of 0.2% FA in water. The extracts were chromatographed on an Aquasil C18 column using a gradient system of 0.2% formic acid in water and acetonitrile. The analytes were detected and quantified by tandem mass spectrometry in positive ion mode on an MDS Sciex API5000 equipped with a Turbo Ionspray® interface. The calibration range was 0.500 (LLOQ) to 200 ng/mL in mouse plasma.

Structure (SMILES) | CC50 (Zluc cells) | EC50 (HCV genotype 1b replicon) | Stability WB_Human (37° C.; 2 hr) [1] | Stability WB_Mouse (ice; 1 hr) (Stability in mouse blood) | Stability SIF [2] | FHH TP Cmax (fresh human hepatocytes) | FHH TP AUC (fresh human hepatocytes) | MsH AUC (mouse hepatocytes) | Ms Liver 2′-MeGTP AUC [3] | MsH Cmax (mouse hepatocytes; mouse hepatocytes) | Ms Plasma 2′-MeG AUC [4] | Ms Plasma 2′-MeG Cmax [4]
CCOc1nc(N)nc2c1ncn2[C@@H]1O[C@@H]2COP(=O)(OCCCC(=O)OC(C)C)O[C@H]2[C@@]1(C)F (single isomer, unassigned; diastereomer 1) [Compound 3 Diastereomer 1] | < 50 µM | < 0.25 µM | 20.5% | 14% | 92% |  |  |  |  |  |  | 
CCOC(=O)CCOP1(=O)OC[C@H]2O[C@@H](n3cnc4c(OCC)nc(N)nc43)[C@](C)(F)[C@@H]2O1 (single isomer, unassigned; diastereomer 1) [Compound 8 Diastereomer 1] | > 50 µM | < 0.25 µM | 89% |  | 96% | BLD^a | BLD^a |  |  |  |  | 
CCOc1nc(N)nc2c1ncn2C1OC2COP(=O)(OCC(NC(=O)OC)C(=O)OC(C)C)OC2C1(C)O (single isomer, unassigned; diastereomer 1) [Compound 14 Diastereomer 1] | < 50 µM | < 0.25 µM | 62% |  | 88% | 19 pmol/mill cells | 224 pmol · hr/mill cells |  |  |  |  | 
CCOc1nc(N)nc2c1ncn2[C@@H]1O[C@@H]2COP(=O)(OCCC(=O)OC(C)C)O[C@H]2[C@@]1(C)F (single isomer, unassigned; diastereomer 1) [Compound 21 Diastereomer 1] |  |  | 86% |  | 91% | BLD^a | BLD^a | BLD^a |  |  |  | 
CCOc1nc(N)nc2c1ncn2[C@@H]1O[C@@H]2COP(=O)(OCCCC(=O)OC(C)C)O[C@H]2[C@@]1(C)F (single isomer, unassigned; diastereomer 2) [Compound 3 Diastereomer 2] |  |  |  |  |  | 146 pmol/mill cells | 4574 pmol · hr/mill cells | 3265 pmol · hr/mill cells | 3200 pmol · hr/g at 1 μmol/kg | 91 pmol/mill cells | 160 pmol · hr/mL at 1 μmol/kg | 17 pmol/mL at 1 μmol/kg
CCOC(=O)CCOP1(=O)OC[C@H]2O[C@@H](n3cnc4c(OCC)nc(N)nc43)[C@](C)(F)[C@@H]2O1 (single isomer, unassigned; diastereomer 2) [Compound 8 Diastereomer 2] | > 50 µM | < 0.25 µM | 34% |  | 94% | BLD^a | BLD^a |  |  |  |  | 
CCOc1nc(N)nc2c1ncn2C1OC2COP(=O)(Oc3ccc(CC(NC(=O)OC)C(=O)OC(C)C)cc3)OC2C1(C)F (single isomer, unassigned; diastereomer 2) [Compound 13 Diastereomer 2] | > 50 µM | < 0.25 µM | 70% | 1% | 72% | 34 pmol/mill cells | 812 pmol · hr/mill cells |  |  |  |  | 
CCOc1nc(N)nc2c1ncn2[C@@H]1O[C@@H]2COP(=O)(OCCC(=O)OC(C)C)O[C@H]2[C@@]1(C)O (single isomer, unassigned; diastereomer 2) [Compound 22 Diastereomer 2] | > 50 µM | < 0.25 µM | 88% |  | 101% | 28 pmol/mill cells | 742 pmol · hr/mill cells | BLD^a |  |  |  | 
